Target: p38 MAP kinase (Homo sapiens, UniProt Q16539)
Conditions: 1 mM each drug core, 0.2 mM p38 MAP kinase, 5° C., pD* 8.4, relaxation filter
Experimental: All the spectra were acquired at 5° C. using a Bruker DMX 500 MHz NMR spectrometer. NOESY spectra were collected using 16 transients with 2048 points in ω2 and 400 points in ω1 and a mixing time of 400 ms for the drug core mixture in the absence of target and 100 ms for the drug core mixture in the presence of p38. A spin echo with an echo delay of 5 ms was used as a relaxation filter before the t1 evolution period in all experiments. Samples contained 1 mM of each drug core, 0.2 mM p38 MAP kinase, 25 mM deutero-Tris, 10% (v/v) deutero-glycerol, 20 mM deutero-dithiothreitol at pD*=8.4.

p38 MAP kinase, sequence (Q16539 whole entry): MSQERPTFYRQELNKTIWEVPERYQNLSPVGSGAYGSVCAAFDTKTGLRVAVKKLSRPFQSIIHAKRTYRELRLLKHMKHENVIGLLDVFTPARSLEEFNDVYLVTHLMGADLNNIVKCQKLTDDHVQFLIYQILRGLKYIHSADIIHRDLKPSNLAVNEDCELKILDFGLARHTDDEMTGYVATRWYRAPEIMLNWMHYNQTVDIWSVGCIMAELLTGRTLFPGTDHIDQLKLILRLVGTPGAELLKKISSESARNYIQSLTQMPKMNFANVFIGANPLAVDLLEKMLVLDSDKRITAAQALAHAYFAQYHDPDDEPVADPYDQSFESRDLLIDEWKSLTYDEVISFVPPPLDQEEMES

O=C(O)c1cccnc1 [nicotinic acid]
binding to p38 MAP kinase by line broadening and peak height attenuation in 1D NMR: does not

— patent publication US20030143757A1, “Methods for identifying drug cores” (priority 1997, published 2003)
